This is an account of results in ChEMBL document CHEMBL4680185, “Discovery of novel cyclin-dependent kinase (CDK) and histone deacetylase (HDAC) dual inhibitors with potent in vitro and in vivo anticancer activity” (Eur J Med Chem, 2020).

In test [1] the test system is HCT-116. Description: cells. The settings on record: Homo sapiens, time 72 hrs, read-out: GI. Type of test: functional.
Test [2] has as its system NCI-H460. Description: cells. Type of test: functional. The settings on record: Homo sapiens, time 72 hrs, read-out: GI.
Test [3] has as its system HCT-116. Description: cells. The settings on record: Homo sapiens, HCT-116, 72 h. Type of test: functional, cell-based.
Description: Antiproliferative activity against human HCT116 cells assessed as inhibition of cell growth incubated for 72 hrs by CCK-8 assay
In test [4] the test system is NCI-H460. Description: cells. Type of test: functional, cell-based. As to conditions: Homo sapiens, NCI-H460, 72 h.
Description: Antiproliferative activity against human H460 cells assessed as inhibition of cell growth incubated for 72 hrs by CCK-8 assay
In test [5] the test system is A-375. Kind of test: cells. Type of test: functional, cell-based. The settings on record: Homo sapiens, A-375, 72 h.
Description: Antiproliferative activity against human A375 cells assessed as inhibition of cell growth incubated for 72 hrs by CCK-8 assay
For the next test, the system named is HeLa. Kind of test: cells. The class given is functional, cell-based. The settings on record: Homo sapiens, 72 h.
The next test has as its system SMMC-7721. Description: cells. The class given is functional, cell-based. As to conditions: Homo sapiens, SMMC-7721, 72 h.
Test [6] concerns HCT-116. Description: cells. As to conditions: Homo sapiens, time 72 hrs, read-out: GI. Type of test: functional. This is another data set of the same source.
Test [7] deals with NCI-H460. Description: cells. The settings on record: Homo sapiens, time 72 hrs, read-out: GI. Type of test: functional. This is another data set of the same source.
Test [8] in a line: Cytotoxicity against mouse NIH/3T3 cells incubated for 72 hrs by CCK-8 assay. Type of test: cell-based. As to conditions: NIH3T3, 72 h.
In a further test the target is Histone deacetylase 2 (Homo sapiens, UniProt Q92769). Kind of test: Inhibition of human recombinant HDAC2 preincubated for 10 mins followed by addition of substrate fluor De Lys green measured after 30 mins by fluorescent plate reader analysis.
Histone deacetylase 2, sequence (Q92769 whole entry): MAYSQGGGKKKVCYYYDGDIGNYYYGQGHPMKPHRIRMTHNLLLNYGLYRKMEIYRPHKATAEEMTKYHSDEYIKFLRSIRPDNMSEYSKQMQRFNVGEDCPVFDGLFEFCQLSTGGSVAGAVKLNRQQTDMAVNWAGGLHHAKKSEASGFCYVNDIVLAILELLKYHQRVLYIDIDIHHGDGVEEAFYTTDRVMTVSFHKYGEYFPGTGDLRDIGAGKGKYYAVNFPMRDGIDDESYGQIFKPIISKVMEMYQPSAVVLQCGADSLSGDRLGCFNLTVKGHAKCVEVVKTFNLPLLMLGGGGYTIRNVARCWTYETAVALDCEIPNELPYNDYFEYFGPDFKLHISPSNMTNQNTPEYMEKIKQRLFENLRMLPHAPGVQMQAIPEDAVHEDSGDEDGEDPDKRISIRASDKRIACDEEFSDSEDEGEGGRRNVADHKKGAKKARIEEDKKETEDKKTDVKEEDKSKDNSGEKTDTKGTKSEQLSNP
Test [9] relates to A-375. Description: Antimigratory activity against human A375 cells assessed as inhibition of cell migration at 0.25 uM measured after 48 hrs by cell scratch assay. The class given is functional, cell-based.
The test system of test [10] is NCI-H460. Kind of test: Antimigratory activity against human H460 cells assessed as inhibition of cell migration at 0.5 uM measured after 48 hrs by cell scratch assay. The class given is functional, cell-based.
Test [11] deals with A-375. Kind of test: Induction of apoptosis in human A375 cells assessed as number of apoptotic cells at 2 uM incubated for 48 hrs by annexin V-FITC/PI based flow cytometric analysis relative to control. The class given is functional. For orientation: Flow cytometry measures light scatter and fluorescence of single cells or particles in a stream.
For test [12], the system named is HCT-116. Description: Induction of apoptosis in human HCT116 cells assessed as number of apoptotic cells at 2 uM incubated for 48 hrs by annexin V-FITC/PI based flow cytometric analysis relative to control. The class given is functional.
Test [13] deals with Cyclin-dependent kinase 4/cyclin D1 (Homo sapiens, UniProt P11802). Kind of test: Inhibition of recombinant human full length CDK4/cyclin D1 expressed in Sf9 cells incubated for 10 mins by ADP-Glo reagent assay.
Cyclin-dependent kinase 4/cyclin D1, sequence (P11802 whole entry): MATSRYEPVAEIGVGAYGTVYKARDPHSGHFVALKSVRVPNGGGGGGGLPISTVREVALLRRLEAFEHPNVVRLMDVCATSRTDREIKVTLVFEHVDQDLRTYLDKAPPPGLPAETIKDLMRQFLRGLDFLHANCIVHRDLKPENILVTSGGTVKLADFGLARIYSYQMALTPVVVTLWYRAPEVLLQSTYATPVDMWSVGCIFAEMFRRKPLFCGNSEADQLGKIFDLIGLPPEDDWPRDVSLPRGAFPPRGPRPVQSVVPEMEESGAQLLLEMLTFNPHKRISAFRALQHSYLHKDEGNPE
Cyclin-dependent kinase 4/cyclin D1, sequence (P24385 whole entry, further chain): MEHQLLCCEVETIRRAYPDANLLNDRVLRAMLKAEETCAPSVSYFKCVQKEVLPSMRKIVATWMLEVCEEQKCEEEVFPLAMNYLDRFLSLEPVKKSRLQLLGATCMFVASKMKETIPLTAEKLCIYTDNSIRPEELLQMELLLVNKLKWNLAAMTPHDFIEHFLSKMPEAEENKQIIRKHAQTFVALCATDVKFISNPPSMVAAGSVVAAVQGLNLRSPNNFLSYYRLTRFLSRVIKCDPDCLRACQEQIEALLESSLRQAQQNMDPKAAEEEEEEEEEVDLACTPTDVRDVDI
In the next test the target is CDK6/cyclin D3 (Homo sapiens, UniProt Q00534). Kind of test: Inhibition of recombinant human full length CDK6/cyclin D3 incubated for 10 mins by ADP-Glo reagent assay. Type of test: protein-complex assay.
CDK6/cyclin D3, sequence (P30281 whole entry): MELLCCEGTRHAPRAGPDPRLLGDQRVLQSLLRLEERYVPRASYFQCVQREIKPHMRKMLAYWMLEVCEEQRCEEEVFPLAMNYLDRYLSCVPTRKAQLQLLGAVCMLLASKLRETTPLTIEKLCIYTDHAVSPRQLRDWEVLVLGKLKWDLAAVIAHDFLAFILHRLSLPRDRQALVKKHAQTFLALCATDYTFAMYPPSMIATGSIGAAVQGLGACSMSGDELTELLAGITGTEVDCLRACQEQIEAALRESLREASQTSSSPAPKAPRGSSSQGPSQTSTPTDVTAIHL
CDK6/cyclin D3, sequence (Q00534 whole entry): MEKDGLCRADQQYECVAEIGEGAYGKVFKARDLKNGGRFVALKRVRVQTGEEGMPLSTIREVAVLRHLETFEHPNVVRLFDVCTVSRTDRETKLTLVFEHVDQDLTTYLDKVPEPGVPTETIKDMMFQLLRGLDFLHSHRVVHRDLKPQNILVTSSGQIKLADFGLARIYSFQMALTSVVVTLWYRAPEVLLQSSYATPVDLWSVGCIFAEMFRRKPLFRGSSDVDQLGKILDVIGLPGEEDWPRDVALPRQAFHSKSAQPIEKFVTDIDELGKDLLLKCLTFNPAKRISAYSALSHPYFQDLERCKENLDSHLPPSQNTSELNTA
Test [14] has as its target Cyclin-dependent kinase 7/ cyclin H (Homo sapiens, UniProt P50613). Description: Inhibition of recombinant human full length CDK7/cyclin H1 expressed in Sf9 cells incubated for 10 mins by ADP-Glo reagent assay.

Structures are written as SMILES. Active and inactive are the calls of the source. The calls are words filed in the database; no cut-off is given here.

Cyclin-dependent kinase 7/ cyclin H, sequence (P51946 whole entry): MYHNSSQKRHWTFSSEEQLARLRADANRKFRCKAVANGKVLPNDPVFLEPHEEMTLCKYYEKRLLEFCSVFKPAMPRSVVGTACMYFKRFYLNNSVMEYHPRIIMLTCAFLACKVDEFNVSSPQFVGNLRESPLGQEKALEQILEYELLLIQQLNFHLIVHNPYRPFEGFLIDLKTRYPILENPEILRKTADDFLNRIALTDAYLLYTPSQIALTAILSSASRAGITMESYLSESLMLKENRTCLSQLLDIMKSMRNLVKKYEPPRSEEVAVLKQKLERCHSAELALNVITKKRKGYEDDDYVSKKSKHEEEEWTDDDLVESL
Cyclin-dependent kinase 7/ cyclin H, sequence (P50613 whole entry): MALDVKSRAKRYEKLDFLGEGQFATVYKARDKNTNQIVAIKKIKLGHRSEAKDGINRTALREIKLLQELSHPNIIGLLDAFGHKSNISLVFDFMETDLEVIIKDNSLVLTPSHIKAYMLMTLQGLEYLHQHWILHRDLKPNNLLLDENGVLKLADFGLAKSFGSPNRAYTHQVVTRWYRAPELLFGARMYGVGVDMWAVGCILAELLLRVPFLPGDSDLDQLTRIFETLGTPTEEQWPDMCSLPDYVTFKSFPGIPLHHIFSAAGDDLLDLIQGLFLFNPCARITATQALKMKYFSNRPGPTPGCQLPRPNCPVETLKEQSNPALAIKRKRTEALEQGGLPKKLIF
Description for HeLa: Antiproliferative activity against human Hela cells assessed as inhibition of cell growth incubated for 72 hrs by CCK-8 assay
Description for SMMC-7721: Antiproliferative activity against human SMMC7721 cells assessed as inhibition of cell growth incubated for 72 hrs by CCK-8 assay

Broadly, the IC50 is the concentration that inhibits the measured activity by half. In the case of `COc1ccccc1C(=O)Nc1c[nH]nc1C(=O)NCc1ccc(C(=O)Nc2ccccc2N)cc1`, the inhibition of growth at 8 µM was determined as 75.4% with HCT-116 [1] and 45.5% in the test with NCI-H460 [2]. For the same molecule, the IC50 in the test with HCT-116 [3] turned out to be 3.68 µM; with NCI-H460 [4], 7.35 µM; in the test on A-375 [5], 2.66 µM; in the test with HeLa, 8.13 µM; in the test with SMMC-7721, 8.32 µM. Also, the inhibition of growth at 2 µM with HCT-116 [6] worked out at 23.5%; in the test with NCI-H460 [7], 5.73%.
With `Nc1ccc(F)cc1NC(=O)c1ccc(CNC(=O)/C=C/c2cccnc2)cc1`, the inhibition of growth at 8 µM turned out to be 72.2% with HCT-116 [1] and 38.2% in the test with NCI-H460 [2]. Besides, the IC50 was 2.77 µM in the test on HCT-116 [3]; more than 32 µM in the test on NCI-H460 [4]; 4.11 µM in the test with A-375 [5]; 14.9 µM with HeLa; 25.6 µM in the test on SMMC-7721; 2.46 µM in test [8]. The IC50 at Histone deacetylase 2 was 0.023 µM. Further, the inhibition entry with A-375 [9] and in the test on NCI-H460 [10] was “Active” each time. Besides, the results for the Activity with A-375 [11] and in the test on HCT-116 [12] were 62.6% and 44.3%, respectively. Also, the inhibition of growth at 2 µM in the test on HCT-116 [6] came out at 64.4%; with NCI-H460 [7], 1.73%.
For `Nc1ccccc1NC(=O)c1ccc(CNC(=O)c2n[nH]cc2NC(=O)c2ccccc2)cc1`, the inhibition of growth at 8 µM with HCT-116 [1] amounted to 88.6%; in the test with NCI-H460 [2], 61.7%. In addition, the IC50 with HCT-116 [3] worked out at 1.66 µM; with NCI-H460 [4], 6.32 µM; in the test on A-375 [5], 1.59 µM; in the test on HeLa it was 4.06 µM; in the test with SMMC-7721 it was 6.62 µM. Besides, the inhibition of growth at 2 µM was determined as 62.9% in the test on HCT-116 [6] and 11.8% with NCI-H460 [7].
Turning to `Nc1ccccc1NC(=O)Cc1ccc(NC(=O)c2n[nH]cc2NC(=O)c2c(F)cccc2F)cc1`, the results for the inhibition of growth at 8 µM in the test on HCT-116 [1] and in the test with NCI-H460 [2] were 81.6% and 73.8%, respectively. Further, the IC50 was determined as 3.46 µM with HCT-116 [3]; 4.99 µM in the test on NCI-H460 [4]; 2.97 µM in the test with A-375 [5]; 8.89 µM in the test on HeLa; 16.5 µM in the test with SMMC-7721. Besides, the results for the inhibition of growth at 2 µM with HCT-116 [6] and with NCI-H460 [7] were 76.8% and 3.52%, respectively.
Take `O=C(NO)c1ccc(CNC(=O)c2n[nH]cc2NC(=O)c2ccccc2Cl)cc1`: the inhibition of growth at 8 µM came to 71.6% with HCT-116 [1] and 29.8% with NCI-H460 [2]. For the same molecule, the IC50 in the test with HCT-116 [3] was 2.4 µM; in the test with NCI-H460 [4] it was 6.17 µM; in the test on A-375 [5], 6.42 µM; in the test on HeLa it was 16.2 µM; with SMMC-7721, 21.8 µM. The inhibition of growth at 2 µM with HCT-116 [6] is 53.8%; with NCI-H460 [7], 26.6%.
For `O=C(NO)c1ccc(CNC(=O)c2n[nH]cc2NC(=O)c2c(Cl)cccc2Cl)cc1`, the figures for the inhibition of growth at 8 µM in the test with HCT-116 [1] and in the test on NCI-H460 [2] were 81.9% and 57.4%, respectively. The IC50 with HCT-116 [3] was 0.5 µM; with NCI-H460 [4] it was 10.6 µM; in the test on A-375 [5], 5.05 µM; in the test on HeLa it was 4.84 µM; in the test on SMMC-7721 it was 14.6 µM. For the same molecule, the inhibition of growth at 2 µM in the test on HCT-116 [6] worked out at 68.7%; in the test on NCI-H460 [7] it was 45.4%.
As for `Nc1ccccc1NC(=O)Cc1ccc(NC(=O)c2n[nH]cc2NC(=O)c2c(F)cccc2Cl)cc1`, the inhibition of growth at 8 µM amounted to 74.3% with HCT-116 [1] and 75.1% with NCI-H460 [2]. Moreover, the IC50 in the test on HCT-116 [3] was found to be 2.57 µM; in the test on NCI-H460 [4] it was 5.34 µM; in the test with A-375 [5] it was 2.89 µM; in the test on HeLa, 4.3 µM; with SMMC-7721 it was 14.4 µM. Further, the inhibition of growth at 2 µM with HCT-116 [6] stood at 60.4%; with NCI-H460 [7], 16.4%.
With `Nc1ccccc1NC(=O)c1ccc(CNC(=O)c2n[nH]cc2NC(=O)c2ccccc2Cl)cc1`, the inhibition of growth at 8 µM with HCT-116 [1] is 84.4%; in the test with NCI-H460 [2], 17.4%. For the same molecule, the IC50 in the test on HCT-116 [3] amounted to 0.9 µM; in the test on NCI-H460 [4], 6.36 µM; with A-375 [5], 2.11 µM; in the test with HeLa, 10.5 µM; in the test with SMMC-7721, 12.9 µM. Also, the inhibition of growth at 2 µM with HCT-116 [6] turned out to be 63.7%; in the test with NCI-H460 [7], 5.54%.
Take `O=C(NO)c1ccc(CNC(=O)c2n[nH]cc2NC(=O)c2ccccc2F)cc1`: the inhibition of growth at 8 µM was 77% in the test on HCT-116 [1] and 57.1% in the test on NCI-H460 [2]. In addition, the IC50 with HCT-116 [3] was found to be 2.2 µM; with NCI-H460 [4], 23.7 µM; with A-375 [5] it was 3.01 µM; in the test on HeLa it was 6.61 µM; with SMMC-7721, 16.7 µM. Moreover, the results for the inhibition of growth at 2 µM in the test with HCT-116 [6] and with NCI-H460 [7] were 51% and 23.5%, respectively.
As to `O=C(Nc1ccc(F)cc1)c1n[nH]cc1NC(=O)c1c(F)cccc1F`, the inhibition of growth at 8 µM was determined as 74% in the test with HCT-116 [1] and 59.1% with NCI-H460 [2]. Besides, the IC50 came out at 1.96 µM with HCT-116 [3]; 9.46 µM in the test with NCI-H460 [4]; 13.4 µM with A-375 [5]; 8.23 µM with HeLa; 23.2 µM with SMMC-7721; 7.85 µM in test [8]. Also, the concentration for half-maximal inhibition (IC50) (in test [13]; on CDK6/cyclin D3; in [14]) was more than 1 µM in each case. In addition, the inhibition result with A-375 [9] and in the test on NCI-H460 [10] was “Active” throughout. Besides, the Activity with A-375 [11] is on record as 66.71%; with HCT-116 [12], 48%. The figures for the inhibition of growth at 2 µM in the test with HCT-116 [6] and in the test on NCI-H460 [7] were 57.6% and 21.3%, respectively.
